From patent US12507720B2, “Use of anthocyanin-anionic polysaccharide complex for preventing or treating influenza virus A infection” (JBKLAB CO., LTD., priority 2019, dated 2025)

Assay type: physicochemical
Conditions: pH 3
Method: The amount of anthocyanin was confirmed using a spectrophotometer to confirm the stability of the complex prepared in Example 1 over time. 40 ml of the anthocyanin-alginic acid complex was centrifuged at 13000 rpm for 30 minutes, and the precipitate was dispersed in PBS (pH 3 or pH 7.4). In addition, anthocyanin was prepared by dissolving thereof in PBS (pH 3 or pH 7.4). The absorbance of the complex and anthocyanin dispersed in PBS (pH 3 or pH 7.4) was measured with a spectrophotometer at each wavelength band of 513 nm or 520 nm, respectively, and the change in the absorbance value of anthocyanin was observed.

Substance: anthocyanin
- stability (in words): stable
